pIC50, pKi: −log10 of the molar value.
Assays:
[1] = molecular target: Beta-3 adrenergic receptor (Homo sapiens, UniProt P13945); test: DRUGMATRIX: Adrenergic beta3 radioligand binding (ligand: [125I] Cyanopindolol); assay type: cell membranes, Membrane; settings: hek293; Not Active = under 50% inhibition at 10 µM
Thromboxane-A synthase = molecular target: T1, Thromboxane-A synthase (Homo sapiens, UniProt P24557); test: biochemical; assay type: tissue-based, Platelet; settings: for IC50: platelet;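 for all read-outs here: enzyme inhibition assay with PGH2 supplied as substrate; in other assays of this panel Not Active means under 50% inhibition at 10 µM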
T1 sequence (P24557 whole entry): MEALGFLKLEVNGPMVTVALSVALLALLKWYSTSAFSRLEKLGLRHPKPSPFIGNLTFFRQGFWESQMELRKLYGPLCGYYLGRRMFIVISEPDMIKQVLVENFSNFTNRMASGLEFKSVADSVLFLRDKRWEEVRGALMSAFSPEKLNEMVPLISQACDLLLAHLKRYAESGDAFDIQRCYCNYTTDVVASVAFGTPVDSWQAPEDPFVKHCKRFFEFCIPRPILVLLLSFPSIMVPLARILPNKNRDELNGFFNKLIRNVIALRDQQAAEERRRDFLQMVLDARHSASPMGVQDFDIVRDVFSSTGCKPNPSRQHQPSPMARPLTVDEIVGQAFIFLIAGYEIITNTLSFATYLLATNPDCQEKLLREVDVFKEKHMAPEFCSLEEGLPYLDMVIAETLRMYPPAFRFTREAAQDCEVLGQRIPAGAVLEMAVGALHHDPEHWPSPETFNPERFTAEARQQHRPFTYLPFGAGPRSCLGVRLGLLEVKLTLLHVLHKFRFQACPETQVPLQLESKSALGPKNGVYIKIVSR

Vasopressin V1a receptor = Vasopressin V1a receptor (Homo sapiens, UniProt P37288); assay type: cell membranes, Membrane; settings: hek293; note: in other assays of this panel Not Active means under 50% inhibition at 10 µM
Melanocortin receptor 4 = Melanocortin receptor 4 (Homo sapiens, UniProt P32245); assay type: cell membranes, Membrane; settings: hek293; note: in other assays of this panel Not Active means under 50% inhibition at 10 µM
[2] = molecular target: T2, Receptor-type tyrosine-protein phosphatase C (Homo sapiens, UniProt P08575); design: species or system Escherichia coli;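 note: inhibition of CD45 enzyme activity measured using DiFMUP as substrate; in other assays of this panel Not Active means under 50% inhibition at 10 µM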
T2 sequence (P08575 whole entry): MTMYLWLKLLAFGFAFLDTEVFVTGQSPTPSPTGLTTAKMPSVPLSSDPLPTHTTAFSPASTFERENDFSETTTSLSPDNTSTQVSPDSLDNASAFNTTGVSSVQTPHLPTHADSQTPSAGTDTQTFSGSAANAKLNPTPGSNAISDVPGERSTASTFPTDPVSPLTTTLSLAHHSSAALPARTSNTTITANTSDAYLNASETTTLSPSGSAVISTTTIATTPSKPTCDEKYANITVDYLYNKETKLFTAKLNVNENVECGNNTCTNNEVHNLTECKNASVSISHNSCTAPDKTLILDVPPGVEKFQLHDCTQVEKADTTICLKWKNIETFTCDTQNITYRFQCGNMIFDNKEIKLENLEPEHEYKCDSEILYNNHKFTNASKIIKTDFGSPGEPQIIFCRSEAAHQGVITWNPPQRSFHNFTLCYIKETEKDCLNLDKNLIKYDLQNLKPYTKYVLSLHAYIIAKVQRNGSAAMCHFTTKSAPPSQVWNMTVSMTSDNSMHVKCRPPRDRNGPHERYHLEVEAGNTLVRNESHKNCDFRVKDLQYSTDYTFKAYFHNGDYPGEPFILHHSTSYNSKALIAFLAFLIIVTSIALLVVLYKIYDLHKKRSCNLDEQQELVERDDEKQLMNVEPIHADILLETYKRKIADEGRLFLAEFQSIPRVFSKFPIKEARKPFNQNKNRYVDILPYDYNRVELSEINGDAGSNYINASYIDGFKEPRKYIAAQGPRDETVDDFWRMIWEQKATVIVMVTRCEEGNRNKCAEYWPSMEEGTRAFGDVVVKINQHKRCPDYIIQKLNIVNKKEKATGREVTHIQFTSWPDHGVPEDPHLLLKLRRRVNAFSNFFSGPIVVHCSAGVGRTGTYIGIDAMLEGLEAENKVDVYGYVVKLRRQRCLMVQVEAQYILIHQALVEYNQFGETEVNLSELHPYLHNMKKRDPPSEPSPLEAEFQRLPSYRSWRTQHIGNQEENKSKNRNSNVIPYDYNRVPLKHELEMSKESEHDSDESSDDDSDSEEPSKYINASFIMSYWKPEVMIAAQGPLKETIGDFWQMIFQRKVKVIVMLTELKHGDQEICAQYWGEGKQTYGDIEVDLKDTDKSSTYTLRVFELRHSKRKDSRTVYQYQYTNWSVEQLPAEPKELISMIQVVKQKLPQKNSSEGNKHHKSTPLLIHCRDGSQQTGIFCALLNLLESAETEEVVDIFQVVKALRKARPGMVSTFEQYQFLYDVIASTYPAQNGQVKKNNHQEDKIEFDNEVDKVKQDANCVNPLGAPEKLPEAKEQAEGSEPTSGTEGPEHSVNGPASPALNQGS

Cytochrome P450 1A2 = molecular target: T3, Cytochrome P450 1A2 (Homo sapiens, UniProt P05177); settings: bti-tn-5b1-4; note: in other assays of this panel Not Active means under 50% inhibition at 10 µM
T3 sequence (P05177 whole entry): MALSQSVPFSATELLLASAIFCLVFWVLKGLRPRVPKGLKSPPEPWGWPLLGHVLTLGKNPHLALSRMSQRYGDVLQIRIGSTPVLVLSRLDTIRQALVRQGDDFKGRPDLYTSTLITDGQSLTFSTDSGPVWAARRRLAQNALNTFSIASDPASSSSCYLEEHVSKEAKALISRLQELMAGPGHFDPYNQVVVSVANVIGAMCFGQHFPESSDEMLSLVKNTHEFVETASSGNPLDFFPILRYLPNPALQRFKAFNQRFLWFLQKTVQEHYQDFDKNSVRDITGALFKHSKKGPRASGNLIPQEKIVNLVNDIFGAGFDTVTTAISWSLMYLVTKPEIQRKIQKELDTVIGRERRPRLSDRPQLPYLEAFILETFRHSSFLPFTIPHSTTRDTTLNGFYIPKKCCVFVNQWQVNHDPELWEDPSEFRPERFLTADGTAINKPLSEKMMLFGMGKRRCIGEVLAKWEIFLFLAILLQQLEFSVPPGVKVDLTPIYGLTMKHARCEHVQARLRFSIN

Estrogen receptor beta = Estrogen receptor beta (Homo sapiens, UniProt Q92731); settings: sf9; note: in other assays of this panel Not Active means under 50% inhibition at 10 µM
[3] = molecular target: Sodium-dependent noradrenaline transporter (Homo sapiens, UniProt P23975); test: DRUGMATRIX: Norepinephrine Transporter radioligand binding (ligand: [125I] RTI-55); assay type: cell membranes, MDCK, Membrane; settings: Not Active = under 50% inhibition at 10 µM; for IC50: mdck
[4] = molecular target: 5-hydroxytryptamine receptor 6 (Homo sapiens, UniProt P50406); assay type: cell membranes, HeLa, Membrane; settings: for IC50: hela; for pIC50: read-out: IC50; for pKi: read-out: Ki
[5] = DRUGMATRIX: Tumor Necrosis Factor (TNF), Non-Selective radioligand binding (ligand: [125I] TNF-alpha); assay type: cell membranes, Membrane; settings: u-937; Not Active = under 50% inhibition at 10 µM
[6] = DRUGMATRIX: Glutamate, Kainate radioligand binding (ligand: [3H] Kainic acid); assay type: cell membranes, Rattus norvegicus, Wistar, Brain, Membrane; settings: Not Active = under 50% inhibition at 10 µM

Chain of Vasopressin V1a receptor (P37288 whole entry): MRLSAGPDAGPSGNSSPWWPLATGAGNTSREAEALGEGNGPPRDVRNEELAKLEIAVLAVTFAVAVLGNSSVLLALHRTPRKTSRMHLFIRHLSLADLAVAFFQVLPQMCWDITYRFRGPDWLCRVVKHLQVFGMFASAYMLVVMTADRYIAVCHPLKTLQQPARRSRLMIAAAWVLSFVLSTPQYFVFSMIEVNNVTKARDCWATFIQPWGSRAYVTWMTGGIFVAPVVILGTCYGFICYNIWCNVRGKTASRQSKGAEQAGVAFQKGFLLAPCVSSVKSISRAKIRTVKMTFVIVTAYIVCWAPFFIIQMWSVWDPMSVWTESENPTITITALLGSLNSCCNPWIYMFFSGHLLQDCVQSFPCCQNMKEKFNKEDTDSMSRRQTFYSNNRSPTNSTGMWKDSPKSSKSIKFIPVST
Chain of Melanocortin receptor 4 (P32245 whole entry): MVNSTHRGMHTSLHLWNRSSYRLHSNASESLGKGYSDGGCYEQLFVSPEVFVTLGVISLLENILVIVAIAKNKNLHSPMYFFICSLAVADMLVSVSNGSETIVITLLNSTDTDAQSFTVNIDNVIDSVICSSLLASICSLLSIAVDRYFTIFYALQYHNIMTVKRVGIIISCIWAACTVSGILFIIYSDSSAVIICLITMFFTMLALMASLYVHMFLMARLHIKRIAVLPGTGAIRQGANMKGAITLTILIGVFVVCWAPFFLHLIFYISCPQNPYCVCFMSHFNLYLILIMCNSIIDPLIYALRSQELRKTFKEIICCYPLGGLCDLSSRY
Chain of 5-hydroxytryptamine receptor 6 (P50406 whole entry): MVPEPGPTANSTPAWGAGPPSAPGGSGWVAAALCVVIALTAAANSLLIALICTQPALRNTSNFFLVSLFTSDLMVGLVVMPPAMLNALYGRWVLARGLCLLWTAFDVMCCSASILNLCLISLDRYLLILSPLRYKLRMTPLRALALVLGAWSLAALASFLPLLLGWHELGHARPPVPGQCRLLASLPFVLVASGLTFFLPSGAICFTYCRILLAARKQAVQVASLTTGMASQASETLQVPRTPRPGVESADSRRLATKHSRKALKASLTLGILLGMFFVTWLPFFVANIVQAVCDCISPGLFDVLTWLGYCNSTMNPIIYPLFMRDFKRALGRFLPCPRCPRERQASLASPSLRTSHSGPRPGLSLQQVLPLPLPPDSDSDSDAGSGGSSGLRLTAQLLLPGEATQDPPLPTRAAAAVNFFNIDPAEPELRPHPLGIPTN
Chain of Sodium-dependent noradrenaline transporter (P23975 whole entry): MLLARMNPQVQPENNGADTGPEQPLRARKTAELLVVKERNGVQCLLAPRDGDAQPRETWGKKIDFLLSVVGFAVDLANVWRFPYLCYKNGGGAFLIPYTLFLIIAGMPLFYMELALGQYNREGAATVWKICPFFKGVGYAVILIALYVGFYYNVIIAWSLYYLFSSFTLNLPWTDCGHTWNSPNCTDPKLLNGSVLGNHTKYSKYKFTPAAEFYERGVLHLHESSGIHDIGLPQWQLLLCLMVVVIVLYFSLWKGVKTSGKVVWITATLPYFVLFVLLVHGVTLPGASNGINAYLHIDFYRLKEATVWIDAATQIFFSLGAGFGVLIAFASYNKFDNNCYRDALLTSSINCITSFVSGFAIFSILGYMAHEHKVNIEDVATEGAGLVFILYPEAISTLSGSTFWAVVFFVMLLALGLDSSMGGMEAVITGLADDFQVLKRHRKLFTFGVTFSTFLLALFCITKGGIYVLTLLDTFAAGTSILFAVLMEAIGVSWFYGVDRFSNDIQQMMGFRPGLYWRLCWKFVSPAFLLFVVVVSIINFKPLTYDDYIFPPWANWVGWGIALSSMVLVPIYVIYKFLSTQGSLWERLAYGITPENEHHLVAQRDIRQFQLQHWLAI
Chain of Beta-3 adrenergic receptor (P13945 whole entry): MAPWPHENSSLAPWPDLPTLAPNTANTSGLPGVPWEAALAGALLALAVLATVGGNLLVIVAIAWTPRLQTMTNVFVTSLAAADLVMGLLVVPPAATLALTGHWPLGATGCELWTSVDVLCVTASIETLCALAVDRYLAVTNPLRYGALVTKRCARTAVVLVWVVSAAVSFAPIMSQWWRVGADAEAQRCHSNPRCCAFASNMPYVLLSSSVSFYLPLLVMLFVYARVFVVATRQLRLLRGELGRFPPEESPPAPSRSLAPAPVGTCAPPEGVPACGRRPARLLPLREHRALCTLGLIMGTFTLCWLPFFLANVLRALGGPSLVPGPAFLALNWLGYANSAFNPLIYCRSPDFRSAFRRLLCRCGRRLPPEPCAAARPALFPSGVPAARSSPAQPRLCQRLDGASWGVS
Chain of Estrogen receptor beta (Q92731 whole entry): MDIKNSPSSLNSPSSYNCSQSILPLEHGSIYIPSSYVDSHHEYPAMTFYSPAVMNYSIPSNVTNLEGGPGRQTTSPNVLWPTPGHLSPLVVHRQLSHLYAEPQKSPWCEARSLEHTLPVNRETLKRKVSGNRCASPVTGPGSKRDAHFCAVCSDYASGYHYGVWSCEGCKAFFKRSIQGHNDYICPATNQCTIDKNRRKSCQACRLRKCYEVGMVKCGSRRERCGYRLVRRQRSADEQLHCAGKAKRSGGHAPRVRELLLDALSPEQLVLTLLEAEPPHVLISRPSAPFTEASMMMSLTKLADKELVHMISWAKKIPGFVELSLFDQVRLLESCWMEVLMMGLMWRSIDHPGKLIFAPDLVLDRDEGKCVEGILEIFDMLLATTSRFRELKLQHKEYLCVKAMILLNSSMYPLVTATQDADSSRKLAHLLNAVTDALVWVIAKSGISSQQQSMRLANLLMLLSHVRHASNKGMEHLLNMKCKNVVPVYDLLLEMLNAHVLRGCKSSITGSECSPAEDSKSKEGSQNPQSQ

| SMILES | IC50 [1] | IC50 (Thromboxane-A synthase) | IC50 (Vasopressin V1a receptor) | IC50 (Melanocortin receptor 4) | IC50 [2] | IC50 (Cytochrome P450 1A2) | Ki (Cytochrome P450 1A2) | IC50 (Estrogen receptor beta) | IC50 [3] | IC50 [4] | pIC50 [4] | pKi [4] | pIC50 (Thromboxane-A synthase; read-out: IC50) | IC50 [5] | Ki [5] | IC50 [6] | Ki [6] | pIC50 ([3]; read-out: IC50) | pKi ([3]; read-out: Ki) |
| --- | --- | --- | --- | --- | --- | --- | --- | --- | --- | --- | --- | --- | --- | --- | --- | --- | --- | --- | --- |
| Clc1ccc2c(c1)C(N1CCNCC1)=Nc1ccccc1O2 [AMOXAPINE] | Not Active | Not Active | Not Active | Not Active | Not Active | Not Active | Not Active | Not Active |  |  |  |  |  |  |  |  |  |  |  |
| COc1cc2c(c(OC)c1OC)-c1ccc(OC)c(=O)cc1[C@@H](NC(C)=O)CC2 [COLCHICINE] | Not Active | Not Active | Not Active | Not Active | Not Active |  |  | Not Active | Not Active | Not Active |  |  |  |  |  |  |  |  |  |
| CN1CCC(=C2c3ccccc3C=Cc3ccccc32)CC1 [CYPROHEPTADINE] | Not Active | Not Active | Not Active | Not Active | Not Active | Not Active | Not Active | Not Active |  |  | 6.55 | 6.89 |  |  |  |  |  |  |  |
| CC/C(=C(/CC)c1ccc(O)cc1)c1ccc(O)cc1 [DIETHYLSTILBESTROL] | Not Active |  |  | Not Active | Not Active | Not Active | Not Active | Not Active |  |  | 4.89 | 5.22 | 5.36 |  |  |  |  |  |  |
| C=CCN1CC[C@]23c4c5ccc(O)c4O[C@H]2C(=O)CC[C@@]3(O)[C@H]1C5 [NALOXONE] | Not Active | Not Active | Not Active | Not Active | Not Active |  |  | Not Active | Not Active | Not Active |  |  |  |  |  |  |  |  |  |
| COCCOC(=O)C1=C(C)NC(C)=C(C(=O)OC(C)C)C1c1cccc([N+](=O)[O-])c1 (configuration not stated) [NIMODIPINE] | Not Active | Not Active | Not Active | Not Active | Not Active |  |  |  | Not Active | Not Active |  |  |  | Not Active | Not Active | Not Active | Not Active |  |  |
| CC(C)NCC(O)COc1cccc2ccccc12 (configuration not stated) [PROPRANOLOL] |  | Not Active | Not Active | Not Active | Not Active |  |  | Not Active |  |  | 5.51 | 5.85 |  |  |  |  |  |  |  |
| O=C(c1ccc(OCCN2CCCCC2)cc1)c1c(-c2ccc(O)cc2)sc2cc(O)ccc12 [RALOXIFENE] | Not Active | Not Active | Not Active | Not Active | Not Active | Not Active | Not Active | Not Active |  | Not Active |  |  |  | Not Active | Not Active | Not Active | Not Active |  |  |
| CC(C)c1nc(CN(C)C(=O)N[C@H](C(=O)N[C@@H](Cc2ccccc2)C[C@H](O)[C@H](Cc2ccccc2)NC(=O)OCc2cncs2)C(C)C)cs1 [RITONAVIR] | Not Active |  |  | Not Active | Not Active |  |  | Not Active | Not Active | Not Active |  |  |  | Not Active | Not Active | Not Active | Not Active |  |  |
| CC(C)CC(N(C)C)C1(c2ccc(Cl)cc2)CCC1 (configuration not stated) [SIBUTRAMINE] | Not Active | Not Active | Not Active | Not Active | Not Active | Not Active | Not Active | Not Active |  | Not Active |  |  |  | Not Active | Not Active | Not Active | Not Active |  |  |
| Cc1cc(C)nc(NS(=O)(=O)c2ccc(N)cc2)n1 [SULFAMETHAZINE] | Not Active | Not Active | Not Active | Not Active | Not Active | Not Active | Not Active |  | Not Active | Not Active |  |  |  | Not Active | Not Active | Not Active | Not Active |  |  |
| C[C@]1(Cn2ccnn2)[C@H](C(=O)O)N2C(=O)C[C@H]2S1(=O)=O [TAZOBACTAM] | Not Active | Not Active | Not Active | Not Active | Not Active | Not Active | Not Active |  | Not Active | Not Active |  |  |  | Not Active | Not Active | Not Active | Not Active |  |  |
| CC(C)(C)c1ccc(C(O)CCCN2CCC(C(O)(c3ccccc3)c3ccccc3)CC2)cc1 (configuration not stated) [TERFENADINE] | Not Active | Not Active | Not Active | Not Active | Not Active | Not Active | Not Active | Not Active |  |  |  |  |  | Not Active | Not Active | Not Active | Not Active |  |  |
| CC(=O)CC(c1ccccc1)c1c(O)c2ccccc2oc1=O (configuration not stated) [WARFARIN] | Not Active | Not Active | Not Active | Not Active | Not Active | Not Active | Not Active |  | Not Active | Not Active |  |  |  | Not Active | Not Active | Not Active | Not Active |  |  |
| [Cl-].[Cl-].[Zn+2] [ZINC CHLORIDE] | Not Active | Not Active | Not Active | Not Active | Not Active | Not Active | Not Active |  |  | Not Active |  |  |  | Not Active | Not Active | Not Active | Not Active | 5.15 | 5.16 |
